Results from article PMC4460250, “Systems Pharmacology Dissecting Holistic Medicine for Treatment of Complex Diseases: An Example Using Cardiocerebrovascular Diseases Treated by TCM” (Evidence-based Complementary and Alternative Medicine : eCAM, 2015).

Experiments:
[1] = in vivo; cited from earlier work
[2] = in vivo

CCN(CC)[C@H](C)C(=O)c1ccccc1 [Diethylpropion(R)]
HIA(Human Intestinal Absorption) [1]: 0.95
Class(High: HIA value ≥0.7; Low: HIA value < 0.7) [2]: High (key: High: HIA value ≥0.7; Low: HIA value < 0.7)

CCN(CC)[C@@H](C)C(=O)c1ccccc1 [Diethylpropion(S)]
HIA(Human Intestinal Absorption) [1]: 0.95
Class(High: HIA value ≥0.7; Low: HIA value < 0.7) [2]: High (key: High: HIA value ≥0.7; Low: HIA value < 0.7)

COc1ccc2c3c1O[C@H]1[C@@H](O)CC[C@H]4[C@@H](C2)N(C)CC[C@@]341 [Dihydrocodeine]
HIA(Human Intestinal Absorption) [1]: 0.88
Class(High: HIA value ≥0.7; Low: HIA value < 0.7) [2]: High (key: High: HIA value ≥0.7; Low: HIA value < 0.7)

COc1cc2nc(N3CCN(C(=O)[C@H]4COc5ccccc5O4)CC3)nc(N)c2cc1OC [Doxazosin(R)]
HIA(Human Intestinal Absorption) [1]: 1
Class(High: HIA value ≥0.7; Low: HIA value < 0.7) [2]: High (key: High: HIA value ≥0.7; Low: HIA value < 0.7)

COc1cc2nc(N3CCN(C(=O)[C@@H]4COc5ccccc5O4)CC3)nc(N)c2cc1OC [Doxazosin(S)]
HIA(Human Intestinal Absorption) [1]: 1
Class(High: HIA value ≥0.7; Low: HIA value < 0.7) [2]: High (key: High: HIA value ≥0.7; Low: HIA value < 0.7)

O=C(O)CN(CCN(CC(=O)O)CC(=O)O)CC(=O)O [Edetic_acid]
HIA(Human Intestinal Absorption) [1]: 0.05
Class(High: HIA value ≥0.7; Low: HIA value < 0.7) [2]: Low (key: High: HIA value ≥0.7; Low: HIA value < 0.7)

NCCC[C@@](N)(C(=O)O)C(F)F [Eflornithine(R)]
HIA(Human Intestinal Absorption) [1]: 0.55
Class(High: HIA value ≥0.7; Low: HIA value < 0.7) [2]: Low (key: High: HIA value ≥0.7; Low: HIA value < 0.7)

NCCC[C@](N)(C(=O)O)C(F)F [Eflornithine(S)]
HIA(Human Intestinal Absorption) [1]: 0.55
Class(High: HIA value ≥0.7; Low: HIA value < 0.7) [2]: Low (key: High: HIA value ≥0.7; Low: HIA value < 0.7)

C[C@H](N[C@@H](CCc1ccccc1)C(=O)O)C(=O)N1CCC[C@H]1C(=O)O [Enalaprilat]
HIA(Human Intestinal Absorption) [1]: 0.25
Class(High: HIA value ≥0.7; Low: HIA value < 0.7) [2]: Low (key: High: HIA value ≥0.7; Low: HIA value < 0.7)

CN1C[C@H](C(=O)N[C@]2(C)O[C@@]3(O)[C@@H]4CCCN4C(=O)[C@H](Cc4ccccc4)N3C2=O)C=C2c3cccc4[nH]cc(c34)C[C@H]21 [Ergotamine]
HIA(Human Intestinal Absorption) [1]: 1
Class(High: HIA value ≥0.7; Low: HIA value < 0.7) [2]: High (key: High: HIA value ≥0.7; Low: HIA value < 0.7)

C[C@]12CC[C@@H]3c4ccc(OC(=O)N(CCCl)CCCl)cc4CC[C@H]3[C@@H]1CC[C@@H]2O [Estramustine]
HIA(Human Intestinal Absorption) [1]: 0.75
Class(High: HIA value ≥0.7; Low: HIA value < 0.7) [2]: High (key: High: HIA value ≥0.7; Low: HIA value < 0.7)

CCO [Ethyl_alcohol]
HIA(Human Intestinal Absorption) [1]: 1
Class(High: HIA value ≥0.7; Low: HIA value < 0.7) [2]: High (key: High: HIA value ≥0.7; Low: HIA value < 0.7)

CCN[C@H](C)Cc1cccc(C(F)(F)F)c1 [Fenfluramine(R)]
HIA(Human Intestinal Absorption) [1]: 0.95
Class(High: HIA value ≥0.7; Low: HIA value < 0.7) [2]: High (key: High: HIA value ≥0.7; Low: HIA value < 0.7)

CCN[C@@H](C)Cc1cccc(C(F)(F)F)c1 [Fenfluramine(S)]
HIA(Human Intestinal Absorption) [1]: 0.95
Class(High: HIA value ≥0.7; Low: HIA value < 0.7) [2]: High (key: High: HIA value ≥0.7; Low: HIA value < 0.7)

C[C@@H](C(=O)O)c1cccc(Oc2ccccc2)c1 [Fenoprofen(R)]
HIA(Human Intestinal Absorption) [1]: 0.85
Class(High: HIA value ≥0.7; Low: HIA value < 0.7) [2]: High (key: High: HIA value ≥0.7; Low: HIA value < 0.7)

C[C@H](C(=O)O)c1cccc(Oc2ccccc2)c1 [Fenoprofen(S)]
HIA(Human Intestinal Absorption) [1]: 0.85
Class(High: HIA value ≥0.7; Low: HIA value < 0.7) [2]: High (key: High: HIA value ≥0.7; Low: HIA value < 0.7)

CC(Cc1ccc(O)cc1)NCC(O)c1cc(O)cc(O)c1 (stereo not shown) [Fenoterol]
HIA(Human Intestinal Absorption) [1]: 0.6
Class(High: HIA value ≥0.7; Low: HIA value < 0.7) [2]: Low (key: High: HIA value ≥0.7; Low: HIA value < 0.7)

O=C(NC[C@H]1CCCCN1)c1cc(OCC(F)(F)F)ccc1OCC(F)(F)F [Flecainide(R)]
HIA(Human Intestinal Absorption) [1]: 0.81
Class(High: HIA value ≥0.7; Low: HIA value < 0.7) [2]: High (key: High: HIA value ≥0.7; Low: HIA value < 0.7)

O=C(NC[C@@H]1CCCCN1)c1cc(OCC(F)(F)F)ccc1OCC(F)(F)F [Flecainide(S)]
HIA(Human Intestinal Absorption) [1]: 0.81
Class(High: HIA value ≥0.7; Low: HIA value < 0.7) [2]: High (key: High: HIA value ≥0.7; Low: HIA value < 0.7)

OCCN1CCN(CC/C=C2/c3ccccc3Sc3ccc(C(F)(F)F)cc32)CC1 [Flupentixol]
HIA(Human Intestinal Absorption) [1]: 1
Class(High: HIA value ≥0.7; Low: HIA value < 0.7) [2]: High (key: High: HIA value ≥0.7; Low: HIA value < 0.7)

CCN(CC)CCN1C(=O)CN=C(c2ccccc2F)c2cc(Cl)ccc21 [Flurazepam]
HIA(Human Intestinal Absorption) [1]: 1
Class(High: HIA value ≥0.7; Low: HIA value < 0.7) [2]: High (key: High: HIA value ≥0.7; Low: HIA value < 0.7)

C[C@@H](C(=O)O)c1ccc(-c2ccccc2)c(F)c1 [Flurbiprofen(R)]
HIA(Human Intestinal Absorption) [1]: 0.95
Class(High: HIA value ≥0.7; Low: HIA value < 0.7) [2]: High (key: High: HIA value ≥0.7; Low: HIA value < 0.7)

C[C@H](C(=O)O)c1ccc(-c2ccccc2)c(F)c1 [Flurbiprofen(S)]
HIA(Human Intestinal Absorption) [1]: 0.95
Class(High: HIA value ≥0.7; Low: HIA value < 0.7) [2]: High (key: High: HIA value ≥0.7; Low: HIA value < 0.7)

NCC1(CC(=O)O)CCCCC1 [Gabapentin]
HIA(Human Intestinal Absorption) [1]: 0.59
Class(High: HIA value ≥0.7; Low: HIA value < 0.7) [2]: Low (key: High: HIA value ≥0.7; Low: HIA value < 0.7)

COc1ccc(CCN(C)CCC[C@](C#N)(c2cc(OC)c(OC)c(OC)c2)C(C)C)cc1OC [Gallopamil(R)]
HIA(Human Intestinal Absorption) [1]: 0.97
Class(High: HIA value ≥0.7; Low: HIA value < 0.7) [2]: High (key: High: HIA value ≥0.7; Low: HIA value < 0.7)

COc1ccc(CCN(C)CCC[C@@](C#N)(c2cc(OC)c(OC)c(OC)c2)C(C)C)cc1OC [Gallopamil(S)]
HIA(Human Intestinal Absorption) [1]: 0.97
Class(High: HIA value ≥0.7; Low: HIA value < 0.7) [2]: High (key: High: HIA value ≥0.7; Low: HIA value < 0.7)

COc1c(N2CCN[C@H](C)C2)c(F)cc2c(=O)c(C(=O)O)cn(C3CC3)c12 [Gatifloxacin(R)]
HIA(Human Intestinal Absorption) [1]: 0.96
Class(High: HIA value ≥0.7; Low: HIA value < 0.7) [2]: High (key: High: HIA value ≥0.7; Low: HIA value < 0.7)

COc1c(N2CCN[C@@H](C)C2)c(F)cc2c(=O)c(C(=O)O)cn(C3CC3)c12 [Gatifloxacin(S)]
HIA(Human Intestinal Absorption) [1]: 0.96
Class(High: HIA value ≥0.7; Low: HIA value < 0.7) [2]: High (key: High: HIA value ≥0.7; Low: HIA value < 0.7)

CN[C@@H]1[C@@H](O)[C@@H](O[C@@H]2[C@@H](O)[C@H](O[C@H]3O[C@H]([C@@H](C)N)CC[C@H]3N)[C@@H](N)C[C@H]2N)OC[C@]1(C)O [GentamicinC2(R)]
HIA(Human Intestinal Absorption) [1]: 0.01
Class(High: HIA value ≥0.7; Low: HIA value < 0.7) [2]: Low (key: High: HIA value ≥0.7; Low: HIA value < 0.7)

NCC(=O)O [Glycine]
HIA(Human Intestinal Absorption) [1]: 1
Class(High: HIA value ≥0.7; Low: HIA value < 0.7) [2]: High (key: High: HIA value ≥0.7; Low: HIA value < 0.7)

N=C(N)NC[C@@H]1COC2(CCCCC2)O1 [Guanadrel(R)]
HIA(Human Intestinal Absorption) [1]: 0.8
Class(High: HIA value ≥0.7; Low: HIA value < 0.7) [2]: High (key: High: HIA value ≥0.7; Low: HIA value < 0.7)

N=C(N)NC[C@H]1COC2(CCCCC2)O1 [Guanadrel(S)]
HIA(Human Intestinal Absorption) [1]: 0.8
Class(High: HIA value ≥0.7; Low: HIA value < 0.7) [2]: High (key: High: HIA value ≥0.7; Low: HIA value < 0.7)

N=C(N)NC[C@@H]1COc2ccccc2O1 [Guanoxan(R)]
HIA(Human Intestinal Absorption) [1]: 0.5
Class(High: HIA value ≥0.7; Low: HIA value < 0.7) [2]: Low (key: High: HIA value ≥0.7; Low: HIA value < 0.7)

N=C(N)NC[C@H]1COc2ccccc2O1 [Guanoxan(S)]
HIA(Human Intestinal Absorption) [1]: 0.5
Class(High: HIA value ≥0.7; Low: HIA value < 0.7) [2]: Low (key: High: HIA value ≥0.7; Low: HIA value < 0.7)

CN1C(=O)NC(=O)C(C)(C2=CCCCC2)C1=O (stereo not shown) [Hexobarbital]
HIA(Human Intestinal Absorption) [1]: 0.95
Class(High: HIA value ≥0.7; Low: HIA value < 0.7) [2]: High (key: High: HIA value ≥0.7; Low: HIA value < 0.7)

C[C@]12CCC(=O)C=C1CC[C@@H]1[C@@H]2[C@@H](O)C[C@@]2(C)[C@H]1CC[C@]2(O)C(=O)CO [Hydrocortisone]
HIA(Human Intestinal Absorption) [1]: 0.91
Class(High: HIA value ≥0.7; Low: HIA value < 0.7) [2]: High (key: High: HIA value ≥0.7; Low: HIA value < 0.7)

CCN(CCO)CCC[C@@H](C)Nc1ccnc2cc(Cl)ccc12 [Hydroxychloroquine(R)]
HIA(Human Intestinal Absorption) [1]: 0.9
Class(High: HIA value ≥0.7; Low: HIA value < 0.7) [2]: High (key: High: HIA value ≥0.7; Low: HIA value < 0.7)

CCN(CCO)CCC[C@H](C)Nc1ccnc2cc(Cl)ccc12 [Hydroxychloroquine(S)]
HIA(Human Intestinal Absorption) [1]: 0.9
Class(High: HIA value ≥0.7; Low: HIA value < 0.7) [2]: High (key: High: HIA value ≥0.7; Low: HIA value < 0.7)

CCCCCCCN(CC)CCC[C@@H](O)c1ccc(NS(C)(=O)=O)cc1 [Ibutilide(R)]
HIA(Human Intestinal Absorption) [1]: 0.82
Class(High: HIA value ≥0.7; Low: HIA value < 0.7) [2]: High (key: High: HIA value ≥0.7; Low: HIA value < 0.7)

CCCCCCCN(CC)CCC[C@H](O)c1ccc(NS(C)(=O)=O)cc1 [Ibutilide(S)]
HIA(Human Intestinal Absorption) [1]: 0.82
Class(High: HIA value ≥0.7; Low: HIA value < 0.7) [2]: High (key: High: HIA value ≥0.7; Low: HIA value < 0.7)

CC[C@@H](C(=O)O)c1ccc(N2Cc3ccccc3C2=O)cc1 [Indobufen(R)]
HIA(Human Intestinal Absorption) [1]: 1
Class(High: HIA value ≥0.7; Low: HIA value < 0.7) [2]: High (key: High: HIA value ≥0.7; Low: HIA value < 0.7)

CC[C@H](C(=O)O)c1ccc(N2Cc3ccccc3C2=O)cc1 [Indobufen(S)]
HIA(Human Intestinal Absorption) [1]: 1
Class(High: HIA value ≥0.7; Low: HIA value < 0.7) [2]: High (key: High: HIA value ≥0.7; Low: HIA value < 0.7)

CC(C)NC[C@H](O)c1ccc(O)c(O)c1 [Isoproterenol(R)]
HIA(Human Intestinal Absorption) [1]: 0.85
Class(High: HIA value ≥0.7; Low: HIA value < 0.7) [2]: High (key: High: HIA value ≥0.7; Low: HIA value < 0.7)

CC(C)NC[C@@H](O)c1ccc(O)c(O)c1 [Isoproterenol(S)]
HIA(Human Intestinal Absorption) [1]: 0.85
Class(High: HIA value ≥0.7; Low: HIA value < 0.7) [2]: High (key: High: HIA value ≥0.7; Low: HIA value < 0.7)

O=[N+]([O-])O[C@H]1CO[C@H]2[C@@H]1OC[C@H]2O [Isosorbide-2-mononitrate]
HIA(Human Intestinal Absorption) [1]: 0.9
Class(High: HIA value ≥0.7; Low: HIA value < 0.7) [2]: High (key: High: HIA value ≥0.7; Low: HIA value < 0.7)

O=[N+]([O-])O[C@H]1CO[C@H]2[C@@H]1OC[C@H]2O[N+](=O)[O-] [Isosorbide_dinitrate]
HIA(Human Intestinal Absorption) [1]: 1
Class(High: HIA value ≥0.7; Low: HIA value < 0.7) [2]: High (key: High: HIA value ≥0.7; Low: HIA value < 0.7)

COC(=O)C1=C(C)NC(C)=C(C(=O)OC(C)C)[C@@H]1c1cccc2nonc12 [Isradipine(R)]
HIA(Human Intestinal Absorption) [1]: 0.92
Class(High: HIA value ≥0.7; Low: HIA value < 0.7) [2]: High (key: High: HIA value ≥0.7; Low: HIA value < 0.7)
